Measured values as given in patent US9476099B2 (TRUSTEES OF DARTMOUTH COLLEGE, priority 2012, dated 2016).
Where “and” joins values, the source holds several entries; their conditions need not be identical. Identical values can stand only once.

Tested on: NT2/D1-R1 control and DNMT3B knockdown cells
Test: Genome-wide expression analysis with PAM clusters, control and DNMT3B knockdown cells (Tables 8-14)
Conditions: sh-3B + aza
[1] = NT2/D1-R1 DNMT3B knockdown, decitabine 10 nM 3 days

## Nc1ncn([C@H]2C[C@H](O)[C@@H](CO)O2)c(=O)n1 [aza]
10 nM decitabine, 3 days
  ADAMTSL2 NM_014694 expression Mean: 202.775
  ADM NM_001124 expression Mean: 446.451
  AFMID NM_0010109 expression Mean: 172.091
  AHNAK NM_001620 expression Mean: 254.833
  ANAPC13 NM_015391 expression Mean: 377.446
  ANXA1 NM_000700 expression Mean: 394.045
  ANXA2 NM_0010028 expression Mean: 2283.3
  AW972815 expression Mean: 584.452
  BAG3 NM_004281 expression Mean: 816.89
  BCL11A NM_022893 expression Mean: 345.798
  BIRC5 NM_001168 expression Mean: 423.791
  BTG2 NM_006763 expression Mean: 242.194
  C9orf6 NM_017832 expression Mean: 227.753
  C10orf2 NM_021830 expression Mean: 399.327
  C10orf58 NM_032333 expression Mean: 578.039
  C16orf93 NM_0010149 expression Mean: 214.657
  CA2 NM_000067 expression Mean: 486.868
  CATSPER2 NM_172097 expression Mean: 970.22
  CAV1 NM_001753 expression Mean: 402.328
  CCND1 NM_053056 expression Mean: 1996.23
  CDKN1A NM_000389 expression Mean: 619.606
  CDX1 NM_001804 expression Mean: 237.199
  CEACAM1 NM_0010249 expression Mean: 156.04
  CIRH1A NM_032830 expression Mean: 1424.13
  CLCF1 NM_013246 expression Mean: 200.181
  CLDN10 NM_006984 expression Mean: 222.057
  CNN3 NM_001839 expression Mean: 732.909
  COL7A1 NM_000094 expression Mean: 746.239
  COL17A1 NM_000494 expression Mean: 230.283
  CRABP2 NM_001878 expression Mean: 1011.8
  CRIPT NM_014171 expression Mean: 325.647
  CTNNB1 NM_0010982 expression Mean: 258.366
  CUEDC1 NM_017949 expression Mean: 215.515
  CXCL14 NM_004887 expression Mean: 194.723
  CXXC1 NM_014593 expression Mean: 1121.15
  CXorf40A NM_178124 expression Mean: 203.34
  CYR61 NM_001554 expression Mean: 338.671
  DDX51 NM_175066 expression Mean: 1008.46
  DIMT1L NM_014473 expression Mean: 616.311
  DUSP5 NM_004419 expression Mean: 1159.02
  EBI3 NM_005755 expression Mean: 333.316
  EIF2C2 NM_012154 expression Mean: 367.506
  ELF3 NM_004433 expression Mean: 204.8
  ELF4 NM_001421 expression Mean: 365.338
  EMILIN2 NM_032048 expression Mean: 230.192
  EOMES NM_005442 expression Mean: 289.321
  FAM53C NM_016605 expression Mean: 1227.05
  FAM123B NM_152424 expression Mean: 759.762
  FLJ40504 NM_173624 expression Mean: 1376.6
  FOXO3 NM_201559 expression Mean: 274.369
  GAD1 NM_000817 expression Mean: 204.457
  GAD1 NM_013445 expression Mean: 246.924
  GALNAC4S-6 NM_015892 expression Mean: 540.521
  GEMIN4 NM_015721 expression Mean: 784.75
  GLIPR2 NM_022343 expression Mean: 227.407
  GNL3L NM_019067 expression Mean: 289.661
  GNL3 NM_206826 expression Mean: 1810.36
  GPATCH4 NM_182679 expression Mean: 927.016
  GPER NM_0010399 expression Mean: 176.693
  GPR56 NM_201524 expression Mean: 189.936
  GPR56 NM_201525 expression Mean: 205.229
  GPR177 NM_0010022 expression Mean: 158.032 and 231.861
  GPR177 NM_024911 expression Mean: 239.092
  GTF3C6 NM_138408 expression Mean: 454.993
  H2AFY NM_004893 expression Mean: 843.815
  HARS NM_002109 expression Mean: 1283.03
  HCLS1 NM_005335 expression Mean: 494.474
  HES2 NM_019089 expression Mean: 164.558
  HSPA1A NM_005346 expression Mean: 348.731
  HSPA8 NM_006597 expression Mean: 3799.27
  HSPA8 NM_153201 expression Mean: 4636.48
  HSPH1 NM_006644 expression Mean: 389.459
  ID3 NM_002167 expression Mean: 1623.89
  IER3 NM_003897 expression Mean: 406.859
  IL2RB NM_000878 expression Mean: 175.269
  ITPRIP NM_033397 expression Mean: 226.046
  JTV1 NM_006303 expression Mean: 1336.75
  KAT2A NM_021078 expression Mean: 704.033
  KIAA0101 NM_014736 expression Mean: 230.187
  KRT8 NM_002273 expression Mean: 2758.76
  LEFTY2 NM_003240 expression Mean: 2484.87
  LOC644422 XR_019449 expression Mean: 223.185
  LOC647954 XR_018676 expression Mean: 1052.7
  LOC728715 XM_0011282 expression Mean: 877.255
  M6PRBP1 NM_005817 expression Mean: 907.761
  MBNL3 NM_133486 expression Mean: 272.09
  MCM4 NM_005914 expression Mean: 2040.37
  MEPCE NM_019606 expression Mean: 354.1
  METTL1 NM_005371 expression Mean: 266.779
  MORF4L2 NM_012286 expression Mean: 2564.56
  MRTO4 NM_016183 expression Mean: 654.553
  MT1E NM_175617 expression Mean: 1985.42
  MTA2 NM_004739 expression Mean: 325.004
  MYOF NM_013451 expression Mean: 177.015
  MYOF NM_133337 expression Mean: 293.772
  NACC2 NM_144653 expression Mean: 245.995
  NAT5 NM_181528 expression Mean: 1059.57
  NBPF10 NM_0010376 expression Mean: 370.658
  NBPF10 NM_0010397 expression Mean: 345.645
  NEFH NM_021076 expression Mean: 407.674
  NFE2 NM_006163 expression Mean: 245.362
  NM_002467 expression Mean: 595.692
  NM_0010397 expression Mean: 405.052
  NM_138781 expression Mean: 305.526
  NODAL NM_018055 expression Mean: 1549.19
  NOP2 NM_0010337 expression Mean: 5354.42
  NOP56 NM_006392 expression Mean: 2368.5
  NP NM_000270 expression Mean: 340.821
  NR_002773 expression Mean: 394.199
  NR_003287 expression Mean: 182.319
  NTF3 NM_002527 expression Mean: 184.819
  NTS NM_006183 expression Mean: 457.501
  NUAK2 NM_030952 expression Mean: 225.181 and 195.684
  OAT NM_000274 expression Mean: 2711.86
  ODC1 NM_002539 expression Mean: 2404.47
  PAK1IP1 NM_017906 expression Mean: 603.531
  PEA15 NM_003768 expression Mean: 969.289
  PEG3 NM_006210 expression Mean: 256.384
  PITX1 NM_002653 expression Mean: 267.398
  PLAU NM_002658 expression Mean: 325.966
  PLEKHF1 NM_024310 expression Mean: 367.904
  POLR1C NM_203290 expression Mean: 414.276 and 557.268
  PPA2 NM_006903 expression Mean: 606.161
  PPAN NM_002566 expression Mean: 287.832
  RBM22 NM_018047 expression Mean: 700.828
  RNMTL1 NM_018146 expression Mean: 432.796
  RPL6 NM_0010246 expression Mean: 1608.44
  RRM2 NM_001034 expression Mean: 799.058
  RSL1D1 NM_015659 expression Mean: 1458.69
  RUNX3 NM_004350 expression Mean: 191.132
  SERPINE1 NM_000602 expression Mean: 246.121
  SERTAD1 NM_013376 expression Mean: 291.604
  SFXN4 NM_213649 expression Mean: 481.671
  SIDT2 NM_0010404 expression Mean: 326.437
  SLC20A1 NM_005415 expression Mean: 1225.68
  SNAPC4 NM_003086 expression Mean: 599.752
  SOCS2 NM_003877 expression Mean: 182.936 and 244.438
  SOX15 NM_006942 expression Mean: 1693.21
  SPANXD NM_145665 expression Mean: 121.39
  SPRYD5 NM_032681 expression Mean: 293.721
  SQSTM1 NM_003900 expression Mean: 885.073
  SRRT NM_015908 expression Mean: 2745.27
  SUSD2 NM_019601 expression Mean: 1694.29
  TAGLN NM_003186 expression Mean: 489.068
  TNFRSF12A NM_016639 expression Mean: 296.715
  TNFRSF13B NM_012452 expression Mean: 214.796
  TNPO1 NM_153188 expression Mean: 240.816
  TPRG1L NM_182752 expression Mean: 762.223
  TRIM8 NM_030912 expression Mean: 529.909
  TTC4 NM_004623 expression Mean: 851.239
  UTP14A NM_006649 expression Mean: 736.541
  WBSCR22 NM_017528 expression Mean: 958.822
  XM_0011261 expression Mean: 824.879
  XM_0011281 expression Mean: 1290.15
  XR_015970 expression Mean: 527.915
  XR_016703 expression Mean: 4025.84
  XR_017241 expression Mean: 5144.11
  XR_017543 expression Mean: 410.447
  ZDHHC6 NM_022494 expression Mean: 344.248
  ZHX2 NM_014943 expression Mean: 196.281
[1]
  A4GALT (NM_017436) gene expression, Mean: 279.705
  ABR (NM_001092) gene expression, Mean: 376.941
  ACACA (NM_198836) gene expression, Mean: 630.777
